Counter-ions that a name gives are not always drawn. Like-named read-outs stand apart in the source and are kept apart here.
Assays:
[1] = test system: K. pneumoniae expressing the Class A carbapenemase KPC-2; experiment: microbe, parasite or virus in culture; type: cell-based; conditions: in presence of Ceftazidime 8 μg/ml (Examples 1-56)
Outline: (§1)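 CAMHB microdilution, CLSI inoculum. Cells grown 3-5 h + 50 μg/mL ampicillin. Cpd 2-fold serial, 8–0.015 μg/mL final, with β-lactam partner. 37° C, 16-20 h; visual MIC.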

[2] = test system: P. aeruginosa expressing the Class B metallo β-lactamase VIM-2; experiment: In vitro antibacterial assay of β-lactamase inhibition (broth microdilution MIC), P. aeruginosa VIM-2; type: cell-based; conditions: in presence of Ceftazidime 16 μg/mL (Examples 1-56)
Outline: as §1

p99 AmpC β-lactamase = molecular target: T1, p99 AmpC β-lactamase (Enterobacter cloacae, UniProt P05364); experiment: β-lactamase enzyme inhibition assay (nitrocefin substrate), P99 AmpC; type: biochemical
T1 construct: expressed as native untagged proteins; made in house; host or cells: E. coli BL21(DE3)
Outline: (§2)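 Native untagged enzymes were expressed in E. coli BL21(DE3) and purified by cation exchange and gel filtration. Compounds (100–0.005 μM in PBS pH 7.0) were preincubated with enzyme for 10 min at 37 °C, then 100 μM nitrocefin (final) was added. IC50 was derived from the maximum hydrolysis rate at 486 nm, read kinetically for 10 min, relative to uninhibited controls.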

KPC-2 β-lactamase = molecular target: T2, KPC-2 β-lactamase (Klebsiella pneumoniae, UniProt Q9F663); experiment: β-lactamase enzyme inhibition assay (nitrocefin substrate), KPC-2; type: biochemical
T2 construct: expressed as native untagged proteins; made in house; host or cells: E. coli BL21(DE3)
Outline: as §2

[3] = test system: K. pneumoniae expressing the Class A Extended Spectrum Beta-Lactamase (ESBL) CTX-M-15; experiment: In vitro antibacterial assay of β-lactamase inhibition (broth microdilution MIC), K. pneumoniae CTX-M-15; type: cell-based; conditions: in presence of Ceftazidime 8 μg/ml (Examples 1-56)
Outline: as §1

CTX-M15 β-lactamase = molecular target: T3, CTX-M15 β-lactamase (Escherichia coli, UniProt Q9EXV5); experiment: β-lactamase enzyme inhibition assay (nitrocefin substrate), CTXM-15; type: biochemical
T3 construct: expressed as native untagged proteins; made in house; host or cells: E. coli BL21(DE3)
Outline: as §2

[4] = test system: E. cloacae expressing the Class C P99+; experiment: In vitro antibacterial assay of β-lactamase inhibition (broth microdilution MIC), E. cloacae P99+; type: cell-based; conditions: in presence of Ceftazidime 8 μg/ml (Examples 1-56)
Outline: as §1

[5] = test system: E. coli expressing the Class A ESBL SHV-5; experiment: In vitro antibacterial assay of β-lactamase inhibition (broth microdilution MIC), E. coli SHV-5; type: cell-based; conditions: in presence of Ceftazidime 8 μg/ml (Examples 1-56)
Outline: as §1

OXA-23 β-lactamase = molecular target: T4, OXA-23 β-lactamase (Acinetobacter baumannii, UniProt Q9L4P2); experiment: β-lactamase enzyme inhibition assay (nitrocefin substrate), OXA-23 crude extract; type: biochemical; conditions: nitrocefin 100 μM, 37° C., PBS pH 7.0; read-out: OXA-23 IC50
T4 construct: crude β-lactamase extracts were prepared from 20 ml overnight cultures; endogenous in cells; host or cells: Acinetobacter baumannii cells containing OXA-23 (crude freeze-thaw extract)
Outline: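 Crude enzyme came from freeze-thaw extracts of mid-log OXA-23-carrying A. baumannii grown in MH-II broth at 37° C. Inhibitors (100–0.005 μM in PBS pH 7.0) were preincubated with the enzyme for 10 min at 37° C, then 100 μM nitrocefin (final) was added and read kinetically at 486 nm for 10 min. IC50 was taken from initial hydrolysis rates relative to uninhibited controls.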

SHV-5 β-lactamase = molecular target: T5, SHV-5 β-lactamase (Klebsiella pneumoniae, UniProt P0A3M1); experiment: β-lactamase enzyme inhibition assay (nitrocefin substrate), SHV-5; type: biochemical
T5 construct: expressed as native untagged proteins; made in house; host or cells: E. coli BL21(DE3)
Outline: as §2

[6] = molecular target: T6, VIM-2 metallo β-lactamase (Pseudomonas aeruginosa, UniProt Q9K2N0); experiment: β-lactamase enzyme inhibition assay (nitrocefin substrate), VIM-2; type: biochemical; conditions: nitrocefin 100 μM, 37° C., PBS pH 7.0; read-out: VIM-2 IC50
T6 construct: made in house
Outline: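 VIM-2 was expressed untagged in E. coli BL21(DE3) and purified by two Q sepharose anion-exchange runs plus gel filtration to >90% purity. Compounds at 100–0.005 μM in PBS pH 7.0 were preincubated with enzyme for 10 min at 37° C, then nitrocefin was added at 100 μM final. Hydrolysis was followed kinetically at 486 nm for 10 min; IC50 is the concentration halving the initial rate relative to no-inhibitor wells.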

[7] = nitrocefin 100 μM, 37° C., PBS pH 7.0, read-out: P99 AmpC IC50

T5 sequence (P0A3M1 22-286): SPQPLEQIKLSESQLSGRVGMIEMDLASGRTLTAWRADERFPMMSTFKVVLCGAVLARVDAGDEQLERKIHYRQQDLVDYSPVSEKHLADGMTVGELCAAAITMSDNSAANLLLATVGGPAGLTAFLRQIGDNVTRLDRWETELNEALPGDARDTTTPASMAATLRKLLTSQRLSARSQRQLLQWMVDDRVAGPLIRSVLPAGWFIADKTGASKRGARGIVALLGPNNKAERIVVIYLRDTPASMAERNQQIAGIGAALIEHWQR
T4 sequence (Q9L4P2 18-273): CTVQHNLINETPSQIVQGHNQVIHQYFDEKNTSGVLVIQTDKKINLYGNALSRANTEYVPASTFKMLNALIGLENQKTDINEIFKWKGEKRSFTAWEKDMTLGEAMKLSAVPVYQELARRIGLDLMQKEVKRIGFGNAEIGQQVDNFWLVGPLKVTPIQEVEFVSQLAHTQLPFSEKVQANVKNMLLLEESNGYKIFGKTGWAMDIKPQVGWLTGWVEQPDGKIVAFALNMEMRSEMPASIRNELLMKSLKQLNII
T1 sequence (P05364 21-381): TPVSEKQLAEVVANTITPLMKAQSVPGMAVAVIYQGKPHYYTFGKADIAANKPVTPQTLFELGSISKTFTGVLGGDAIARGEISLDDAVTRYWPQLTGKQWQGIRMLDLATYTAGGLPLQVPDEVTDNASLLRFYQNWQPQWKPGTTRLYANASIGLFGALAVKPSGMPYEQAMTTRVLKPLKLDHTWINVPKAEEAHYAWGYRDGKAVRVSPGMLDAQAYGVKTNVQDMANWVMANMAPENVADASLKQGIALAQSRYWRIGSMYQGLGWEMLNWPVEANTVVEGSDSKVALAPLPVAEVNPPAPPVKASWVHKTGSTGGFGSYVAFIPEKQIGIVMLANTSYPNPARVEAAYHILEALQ
T2 sequence (Q9F663 25-293 limits assumed): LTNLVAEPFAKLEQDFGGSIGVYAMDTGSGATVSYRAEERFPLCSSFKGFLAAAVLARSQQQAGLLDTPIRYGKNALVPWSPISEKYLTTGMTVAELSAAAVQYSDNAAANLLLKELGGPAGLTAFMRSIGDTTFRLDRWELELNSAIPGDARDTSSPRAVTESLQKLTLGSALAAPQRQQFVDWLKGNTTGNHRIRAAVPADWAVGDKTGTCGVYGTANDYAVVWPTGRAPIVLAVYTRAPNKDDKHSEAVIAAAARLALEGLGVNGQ
T3 sequence (Q9EXV5 entry or part of it): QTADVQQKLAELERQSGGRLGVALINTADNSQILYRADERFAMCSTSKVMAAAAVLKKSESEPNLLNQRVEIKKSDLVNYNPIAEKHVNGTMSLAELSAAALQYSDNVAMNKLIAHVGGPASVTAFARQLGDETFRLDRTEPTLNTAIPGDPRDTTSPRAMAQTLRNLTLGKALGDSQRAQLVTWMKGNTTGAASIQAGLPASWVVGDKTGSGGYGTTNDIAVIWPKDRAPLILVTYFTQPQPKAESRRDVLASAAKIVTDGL

`NCCNCc1ccc(CC(=O)N[C@@H](Cc2cccc(C(=O)O)c2O)B(O)O)cc1` [Example 35, (1R)-[2-{4-((2-amino-ethylamino)-methyl)-phenyl}-acetylamino]-(3-carboxy-2hydroxy)benzyl-methylboronic acid formate] was tested, and the “MIC of example compound, K. pneumoniae KPC-2” value (“MIC … K. pneumoniae KPC-2” for short) [1] was 0.03 µg/mL, the “MIC of example compound, P. aeruginosa VIM-2” value (“MIC … P. aeruginosa VIM-2” below) [2] was greater than 8 µg/mL and the IC50 (p99 AmpC β-lactamase; [7]) was 5 nM. The IC50 (KPC-2 β-lactamase) was 17 nM, the “MIC of example compound, K. pneumoniae CTX-M-15” value (shortened to “MIC … K. pneumoniae CTX-M-15”) [3] was 0.25 µg/mL and the IC50 (CTX-M15 β-lactamase) was 7 nM. For the same compound, the “MIC of example compound, E. cloacae P99+” value [4] was 0.25 µg/mL, the “MIC of example compound, E. coli SHV-5” value [5] was 0.5 µg/mL and the IC50 (OXA-23 β-lactamase) was 97 nM. For the same compound, the IC50 (SHV-5 β-lactamase) was 2 nM and the IC50 [6] was 196 nM.
For `CN(C)Cc1ccc(CC(=O)N[C@@H](Cc2cccc(C(=O)O)c2O)B(O)O)cc1` [Example 36, (1R)-[2-(4-dimethylaminomethyl-phenyl)-acetylamino]-(3-carboxy-2hydroxy)benzyl-methylboronic acid formate], the “MIC … K. pneumoniae KPC-2” value [1] was 0.06 µg/mL, the “MIC … P. aeruginosa VIM-2” value [2] was greater than 8 µg/mL and the IC50 (p99 AmpC β-lactamase; [7]) was 2 nM. The IC50 (KPC-2 β-lactamase) was 5 nM, the “MIC … K. pneumoniae CTX-M-15” value [3] was 0.12 µg/mL and the IC50 (CTX-M15 β-lactamase) was 4 nM. For the same compound, the “MIC of example compound, E. cloacae P99+” value [4] was 0.25 µg/mL, the “MIC of example compound, E. coli SHV-5” value [5] was 0.5 µg/mL and the IC50 (OXA-23 β-lactamase) was 191 nM. The IC50 (SHV-5 β-lactamase) was 2 nM and the IC50 [6] was 593 nM.
In the case of `O=C(Cc1ccc(CN2CCNCC2)cc1)N[C@@H](Cc1cccc(C(=O)O)c1O)B(O)O` [Example 37, (1R)-[2-(4-piperazin-1-ylmethyl-phenyl)-acetylamino]-(3-carboxy-2hydroxy)benzyl-methylboronic acid formate], the “MIC … K. pneumoniae KPC-2” value [1] is reported as 0.03 µg/mL, the “MIC … P. aeruginosa VIM-2” value [2] is reported as greater than 8 µg/mL and the IC50 (p99 AmpC β-lactamase; [7]) is reported as 2 nM. For the same compound, the IC50 (KPC-2 β-lactamase) was 9 nM, the “MIC … K. pneumoniae CTX-M-15” value [3] was 2 µg/mL and the IC50 (CTX-M15 β-lactamase) was 7 nM. The “MIC of example compound, E. cloacae P99+” value [4] was 2 µg/mL, the “MIC of example compound, E. coli SHV-5” value [5] was 2 µg/mL and the IC50 (OXA-23 β-lactamase) was 83 nM. For the same compound, the IC50 (SHV-5 β-lactamase) was 2 nM and the IC50 [6] was 785 nM.
With `O=C(Cc1ccc(CN(CCO)CCO)cc1)N[C@@H](Cc1cccc(C(=O)O)c1O)B(O)O` [Example 39, (1R)-[2-(4-{[bis-(2-hydroxy-ethyl)-amino]-methyl}-phenyl)-acetylamino]-(3-carboxy-2-hydroxy)benzyl-methylboronic acid formate] the “MIC … K. pneumoniae KPC-2” value [1] was 0.03 µg/mL, the “MIC … P. aeruginosa VIM-2” value [2] was greater than 8 µg/mL and the IC50 (p99 AmpC β-lactamase; [7]) was 12 nM. The IC50 (KPC-2 β-lactamase) was 26 nM, the “MIC … K. pneumoniae CTX-M-15” value [3] was 0.5 µg/mL and the IC50 (CTX-M15 β-lactamase) was 4 nM. The “MIC of example compound, E. cloacae P99+” value [4] was 2 µg/mL, the “MIC of example compound, E. coli SHV-5” value [5] was 0.5 µg/mL and the IC50 (OXA-23 β-lactamase) was 167 nM. The IC50 (SHV-5 β-lactamase) was 970 nM and the IC50 [6] was 469 nM.
For `C[N+]1(Cc2ccc(CC(=O)N[C@@H](Cc3cccc(C(=O)O)c3O)B(O)O)cc2)CCOCC1` [Example 41, 4-(4-{[2-(3-carboxy-2-hydroxy-phenyl)-1-borono-ethylcarbamoyl]-methyl}-benzyl)-4-methyl-morpholin-4-ium formate], the “MIC … K. pneumoniae KPC-2” value [1] was 0.03 µg/mL, the “MIC … P. aeruginosa VIM-2” value [2] was greater than 8 µg/mL and the IC50 (p99 AmpC β-lactamase) was 20 nM. For the same compound, the IC50 (KPC-2 β-lactamase) was 10 nM, the “MIC … K. pneumoniae CTX-M-15” value [3] was 0.25 µg/mL and the IC50 (CTX-M15 β-lactamase) was 2 nM. For the same compound, the “MIC of example compound, E. cloacae P99+” value [4] was 1 µg/mL, the “MIC of example compound, E. coli SHV-5” value [5] was 0.5 µg/mL and the IC50 (OXA-23 β-lactamase) was 201 nM. For the same compound, the IC50 (SHV-5 β-lactamase) was 4 nM and the IC50 [6] was greater than 1000 nM.
In the case of `Cl.Nc1cncc(C(=O)N[C@@H](Cc2cccc(C(=O)O)c2O)B(O)O)c1` [Example 44, (2R)-3-{[2-(5-amino-pyridine-3-carbonyl)-amino]-2-borono-ethyl}-2-hydroxy-benzoic acid hydrochloride], the “MIC … K. pneumoniae KPC-2” value [1] is reported as 0.015 µg/mL, the “MIC … P. aeruginosa VIM-2” value [2] is reported as greater than 8 µg/mL and the IC50 (p99 AmpC β-lactamase; [7]) is reported as 1 nM. The IC50 (KPC-2 β-lactamase) was 30 nM, the “MIC … K. pneumoniae CTX-M-15” value [3] was 0.25 µg/mL and the IC50 (CTX-M15 β-lactamase) was 2 nM. For the same compound, the “MIC of example compound, E. cloacae P99+” value [4] was 1 µg/mL, the “MIC of example compound, E. coli SHV-5” value [5] was 1 µg/mL and the IC50 (OXA-23 β-lactamase) was 120 nM. The IC50 (SHV-5 β-lactamase) was 70 nM and the IC50 [6] was 690 nM.

From US20100292185A1, “BETA-LACTAMASE INHIBITORS” (priority 2009, published 2010)
